Laboratory results published in article PMC12040169 (PLOS Biology, 2025).

Assay: in vitro
Details: human, hela cells, % viability

Row | Structure (SMILES) | viability at 28.5 h, 10 µM
1 | Cc1ccc(S(=O)(=O)NCC(=O)N2CCN(Cc3ccccc3)CC2)cc1 [CBK265991] | 104%
2 | O=C(Nc1ccccc1N1CCOCC1)c1ccc(OCc2ccccc2)cc1 [CBK265992] | 96.3%
3 | COC(=O)COc1ccc(S(=O)(=O)N2CCC(C(N)=O)CC2)cc1 [CBK265993] | 96.7%
4 | CCc1ccc(OCC(=O)O/N=C(\N)c2ccncc2)c(Br)c1 [CBK265994] | 86.6%
5 | Cc1ccc2nc(SCC(=O)O)nc(C)c2c1 [CBK265996] | 94.1%
6 | CC(=O)Oc1ccc(C(=O)Nc2ccc3c(c2)C(=O)N(CCC(=O)O)C3=O)cc1 [CBK265997] | 105%
7 | Cn1c(COc2ccccc2Cl)nnc1SCC(=O)N1c2ccccc2Sc2ccccc21 [CBK266001] | 96.5%
8 | O=C(COc1cccc2ccccc12)Nc1ccc(O)cc1 [CBK266002] | 88.6%
9 | COC(=O)c1c(C)[nH]c(C(=O)CSc2ncnc3sc(C)c(-c4ccccc4)c23)c1C [CBK266004] | 99.5%
10 | CC(NC(=O)Cn1c(-c2nonc2N)nc2ccccc21)c1ccccc1 (centres unmarked) [CBK266006] | 106%
11 | COc1ccc(OC)c(NC(=O)c2c(NCc3ccncc3)sc3c2CCC3)c1 [CBK266007] | 90.1%
12 | O=C(COc1ccccc1[N+](=O)[O-])Nc1ccc(Br)cc1C(=O)O [CBK266008] | 84.9%
13 | COc1ccc(S(=O)(=O)Nc2ccc(S(=O)(=O)Nc3nccs3)cc2)cc1C [CBK266011] | 101%
14 | CC(C)(c1ccccc1)c1ccc(OCC(=O)Nc2cccc(C(=O)O)c2)cc1 [CBK266014] | 102%
15 | CCOC(=O)c1ccc(-n2c(CCC(=O)O)ccc2-c2cccs2)cc1O [CBK266015] | 103%
16 | CCOc1ccc(-n2c(SCc3ccc(Br)cc3)nnc2-c2ccncc2)cc1 [CBK266017] | 103%
17 | NC(=O)Nn1c(CCC(=O)O)ccc1-c1cccs1 [CBK266019] | 93.1%
18 | Cc1ccc(O)c(Nc2ncnc3ccccc23)c1 [CBK266020C] | 93.2%

Row | Structure (SMILES) | viability at 28.5 h, 10 µM
19 | CCOC(=O)c1cnc2c(C)cc(C)cc2c1NCCCN(C)C [CBK266021] | 76.5%
20 | O=C(COc1ccc(S(=O)(=O)NC2CCCCC2)cc1)Nc1cccc2ccccc12 [CBK266023] | 100%
21 | c1ccc(-c2ccc(OCCCCN3CCNCC3)cc2)cc1 [CBK266028G] | 95.8%
22 | CC(Oc1cccc(Cl)c1)C(=O)O/N=C(\N)Cc1cccc2ccccc12 (centres unmarked) [CBK266033] | 90.3%
23 | CCOC(=O)C1CCN(Cc2c(O)c3ccccc3oc2=O)CC1 [CBK266035] | 70.6%
24 | Cc1ccc(OCC(=O)Nc2ccc3c(c2)oc2ccccc23)cc1[N+](=O)[O-] [CBK266036] | 100%
25 | COC(=O)c1ccccc1NC(=O)COc1ccc(Cl)c2cccnc12 [CBK266037] | 104%
26 | Cc1[nH]c2ccccc2c1C(c1ccccc1OCC(=O)O)c1c(C)[nH]c2ccccc12 [CBK266038] | 109%
27 | O=C(NCC1CCCO1)c1ccccc1Sc1ccc([N+](=O)[O-])cc1Cl (centres unmarked) [CBK266041] | 88.8%
28 | CN(C)C(=O)CSc1nnc(-c2cccc3ccccc23)n1-c1ccccc1 [CBK266044] | 92%
29 | Cc1cc(C)c(OCCNC(=O)c2ccccc2Sc2ccccc2C#N)c(C)c1 [CBK266048] | 97.7%
30 | Cc1cc(Cl)c(OCCN2CCCCCC2)c(Br)c1 [CBK266049G] | 91.7%
31 | O=C(CSc1nnc(Cc2cccc3ccccc23)n1-c1ccccc1)NC1CCCCC1 [CBK266052] | 102%
32 | COc1ccc(NC(=O)CSc2nnc(C(O)c3ccccc3)n2C)cc1 (centres unmarked) [CBK266053] | 110%
33 | Cn1c(NC(=O)CSc2nnc(Cc3cccc4ccccc34)o2)cc(=O)n(C)c1=O [CBK266055] | 115%
34 | Cc1cc(Cl)cc(C)c1OCCN1CCNCC1 [CBK266057G] | 84.4%
35 | COc1cccc(NC(=O)CSCc2n[nH]c(=O)[nH]2)c1 [CBK266058] | 95.8%
